Values quoted from earlier work, collected in patent US12221461B2, “Saponin adjuvant and evaluation method thereof” (OBI PHARMA, INC., priority 2018, dated 2025).

tested on: antibody levels; details: previous study, Kensil et al., J. Immunol. 146, 431-437, 1991

| Substance | boost of antibody levels (adjuvant effect) |
| --- | --- |
| QS-17 | able to dramatically boost antibody levels |
| QS-18 | able to dramatically boost antibody levels |
| QS-21 | able to dramatically boost antibody levels |
